This note sets out measurements from US20140066431A1, “Benzoxazepines as Inhibitors of PI3K/mTOR and Methods of Their Use and Manufacture” (Exelixis, Inc., priority 2010, published 2014).

One assay addresses mTOR/GbL/Raptor (mTORC1) (Homo sapiens, UniProt P42345). Nature of the assay: mTOR/GbL/Raptor (mTORC1) ELISA assay. The settings on record: 0.2 nM mTORC1, 10 μM ATP, 50 nM 4E-BP1. The assay is classed as biochemical. On the procedure: The measurement of mTORC1 enzyme activity was performed in an ELISA assay format following the phosphorylation of 4E-BP1 protein. All experiments were performed in the 384-well format. Generally, 0.5 μL DMSO containing varying concentrations of the test compound was mixed with 15 μL enzyme solution. Kinase reactions were initiated with the addition of 15 μL of substrates-containing solution. The assay conditions were as follows; 0.2 nM mTORC1, 10 μM ATP and 50 nM NHis-tagged 4E-BP1 in 20 mM Hepes, pH 7.2, 1 mM DTT, 50 mM NaCl, 10 mM MnCl2, 0.02 mg/mL BSA, 0.01% CHAPS, 50 mM β-glycerophosphate. Following an incubation of 120 minutes at ambient temperature, 20 μL of the reaction volume was transferred to a Ni-Chelate-coated 384-well plate. The binding step of the 4E-BP1 protein proceeded for 60 minutes, followed by washing 4 times each with 50 μL of Tris-buffered saline solution (TBS). Anti-phospho-4E-BP1 rabbit-IgG (20 μL, 1:5000) in 5% BSA-TBST (0.2% Tween-20 in TBS) was added and further incubated for 60 minutes. Incubation with a secondary HRP-tagged anti-IgG was similarly performed after washing off the primary antibody (4 washes of 50 μL). Following the final wash step with TBST, 20 μL of SuperSignal ELISA Femto (Pierce Biotechnology) was added and the luminescence measured using an EnVision plate reader.
For orientation: An ELISA detects its analyte on a solid surface through an enzyme-linked reagent.

The target of the next assay is PI3Kα (Homo sapiens, UniProt P42336). Nature of the assay: PI3K biochemical assay (ATP consumption, luciferase-luciferin). The settings on record: 1.5 nM enzyme, 1 μM ATP, 10 μM PIP2. On the procedure: PI3Kα activity is measured as the percent of ATP consumed following the kinase reaction using luciferase-luciferin-coupled chemiluminescence. Reactions were conducted in 384-well white, medium binding microtiter plates (Greiner). Kinase reactions were initiated by combining test compounds, ATP, substrate (PIP2), and kinase in a 20 μL volume in a buffer solution. The standard PI3Kalpha assay buffer is composed 50 mM Tris, pH 7.5, 1 mM EGTA, 10 mM MgCl2, 1 mM DTT and 0.03% CHAPS. The standard assay concentrations for enzyme, ATP, and substrate are 1.5 nM, 1 μM, and 10 μM, respectively. The reaction mixture was incubated at ambient temperature for approximately 2 h. Following the kinase reaction, a 10 μL aliquot of luciferase-luciferin mix (Promega Kinase-Glo) was added and the chemiluminescence signal measured using a Victor2 plate reader (Perkin Elmer). Total ATP consumption was limited to 40-60% and IC50 values of control compounds correlate well with literature references. Substituting PI3Kα with PI3Kβ, PI3Kγ, or PI3Kδ, the inhibitory activity of the compounds for the other isoforms of I3K were measured.
PI3Kα, sequence (P42336 whole entry): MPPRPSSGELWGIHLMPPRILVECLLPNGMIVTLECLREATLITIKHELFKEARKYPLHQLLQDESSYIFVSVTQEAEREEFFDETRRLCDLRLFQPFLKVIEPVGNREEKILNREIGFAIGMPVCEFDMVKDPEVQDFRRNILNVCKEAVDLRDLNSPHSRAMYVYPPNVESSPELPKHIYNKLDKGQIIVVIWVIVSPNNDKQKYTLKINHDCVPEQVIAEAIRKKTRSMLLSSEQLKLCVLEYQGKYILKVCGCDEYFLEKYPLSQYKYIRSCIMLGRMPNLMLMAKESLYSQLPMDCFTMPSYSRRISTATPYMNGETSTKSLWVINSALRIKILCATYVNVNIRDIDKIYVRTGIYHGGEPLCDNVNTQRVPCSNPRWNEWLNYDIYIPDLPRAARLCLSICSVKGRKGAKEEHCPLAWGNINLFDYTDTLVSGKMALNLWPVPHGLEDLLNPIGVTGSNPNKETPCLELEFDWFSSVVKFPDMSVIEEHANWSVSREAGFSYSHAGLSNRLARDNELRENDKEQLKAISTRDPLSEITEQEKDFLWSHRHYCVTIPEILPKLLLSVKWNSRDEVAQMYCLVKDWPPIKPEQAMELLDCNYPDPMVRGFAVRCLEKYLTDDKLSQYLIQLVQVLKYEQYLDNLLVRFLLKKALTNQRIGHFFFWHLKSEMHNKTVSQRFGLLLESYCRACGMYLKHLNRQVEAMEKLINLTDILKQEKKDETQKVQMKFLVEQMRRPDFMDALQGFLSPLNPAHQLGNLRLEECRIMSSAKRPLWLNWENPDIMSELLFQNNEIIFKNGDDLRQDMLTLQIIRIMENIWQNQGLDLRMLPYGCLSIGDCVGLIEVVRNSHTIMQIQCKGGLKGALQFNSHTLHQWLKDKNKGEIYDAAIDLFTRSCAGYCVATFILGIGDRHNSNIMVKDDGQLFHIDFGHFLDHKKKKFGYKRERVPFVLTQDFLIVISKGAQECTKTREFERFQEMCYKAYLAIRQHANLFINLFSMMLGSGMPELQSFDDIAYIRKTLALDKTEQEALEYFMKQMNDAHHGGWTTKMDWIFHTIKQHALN
PI3Kα, sequence (P27986 whole entry partner): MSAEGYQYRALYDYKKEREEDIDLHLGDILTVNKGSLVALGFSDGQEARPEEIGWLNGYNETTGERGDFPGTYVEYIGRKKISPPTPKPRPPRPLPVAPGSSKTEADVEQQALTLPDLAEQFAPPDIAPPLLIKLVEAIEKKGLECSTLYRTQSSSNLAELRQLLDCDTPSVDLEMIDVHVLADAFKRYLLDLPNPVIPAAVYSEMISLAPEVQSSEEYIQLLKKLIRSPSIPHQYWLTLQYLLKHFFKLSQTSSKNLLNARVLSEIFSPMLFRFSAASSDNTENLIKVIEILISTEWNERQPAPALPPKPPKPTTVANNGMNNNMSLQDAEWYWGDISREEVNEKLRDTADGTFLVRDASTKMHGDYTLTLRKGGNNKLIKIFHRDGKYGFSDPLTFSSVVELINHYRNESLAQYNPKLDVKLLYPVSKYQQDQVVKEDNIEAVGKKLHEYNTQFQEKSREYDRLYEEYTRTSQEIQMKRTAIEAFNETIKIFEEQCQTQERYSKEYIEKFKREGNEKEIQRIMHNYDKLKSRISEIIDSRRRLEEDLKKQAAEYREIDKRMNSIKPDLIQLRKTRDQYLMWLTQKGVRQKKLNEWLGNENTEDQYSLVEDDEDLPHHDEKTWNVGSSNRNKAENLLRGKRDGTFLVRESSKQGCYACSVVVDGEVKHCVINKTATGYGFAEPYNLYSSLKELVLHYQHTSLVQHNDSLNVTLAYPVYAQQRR

`Cc1nc2ccc(-c3ccc4c(c3)CN(C(=O)N3CCCCC3c3cc(C(F)(F)F)cc(C(F)(F)F)c3)CCO4)cc2[nH]1` (stereo not drawn) [compound 115, 4-({2-[3,5-bis(trifluoromethyl)phenyl]piperidin-1-yl}carbonyl)-7-(2-methyl-1H-benzimidazol-6-yl)-2,3,4,5-tetrahydro-1,4-benzoxazepine]: on mTOR/GbL/Raptor (mTORC1), the “IC50 (mTORC1 ELISA)” value was “not active”.
As for `Cc1nc2ccc(-c3ccc4c(c3)CN(C(=O)N3CCCCC3Cc3ccccc3)CCO4)cc2[nH]1` (stereo not drawn) [compound 104, 7-(2-methyl-1H-benzimidazol-6-yl)-4-{[2-(phenylmethyl)piperidin-1-yl]carbonyl}-2,3,4,5-tetrahydro-1,4-benzoxazepine], the “IC50 (PI3Kα biochemical assay)” value on PI3Kα is “not active”.
On the same count and under the same terms, for `CCC1CC2(CCN(C(=O)N3CCOc4ccc(-c5ccc6nc(C)[nH]c6c5)cc4C3)CC2)CC(=O)N1` (stereo not drawn) [compound 155, 4-ethyl-9-{[7-(2-methyl-1H-benzimidazol-6-yl)-2,3-dihydro-1,4-benzoxazepin-4(5H)-yl]carbonyl}-3,9-diazaspiro[5.5]undecan-2-one] the value was “not active”; for `CC1CCN(C(=O)N2CCOc3ccc(-c4ccc(N)nn4)cc3C2)CC1` [compound 1, 6-{4-[(4-methylpiperidin-1-yl)carbonyl]-2,3,4,5-tetrahydro-1,4-benzoxazepin-7-yl}pyridazin-3-amine], “not active”.
On the same count and under the same terms, for `Cc1nc2ccc(-c3ccc4c(c3)CN(C(=O)N3CCN(Cc5c(F)cccc5Cl)CC3)CCO4)cc2[nH]1` [compound 152, 4-({4-[(2-chloro-6-fluoropheny)methyl]piperazin-1-yl}carbonyl)-7-(2-methyl-1H-benzimidazol-6-yl)-2,3,4,5-tetrahydro-1,4-benzoxazepine] the value was “not active”; for `Cc1nc2ccc(-c3ccc4c(c3)CN(C(=O)N3CCC(Cc5ccccc5)CC3)CCO4)cc2[nH]1` [compound 171], “not active”.
Still for that read-out and setting: for `Cc1nc2ccc(-c3ccc4c(c3)CN(C(=O)N3CCC(O)(c5ccc(C(F)(F)F)cc5)CC3)CCO4)cc2[nH]1` [compound 141, 1-{[7-(2-methyl-1H-benzimidazol-6-yl)-2,3-dihydro-1,4-benzoxazepin-4(5H)-yl]carbonyl}-4-[4-(trifluoromethyl)phenyl]piperidin-4-ol] the value was “not active”.
On to `CC1CCN(C(=O)N2CCOc3ccc(-c4cc(NCc5ccccc5)[nH]n4)cc3C2)CC1` [compound 9, 3-{4-[(4-methylpiperidin-1-yl)carbonyl]-2,3,4,5-tetrahydro-1,4-benzoxazepin-7-yl}-N-(phenylmethyl)-1H-pyrazol-5-amine], for which the “IC50 (mTORC1 ELISA)” value on mTOR/GbL/Raptor (mTORC1) is recorded as “not active”.
Still for that read-out and setting: for `CC(=O)c1ccc(N2CCN(C(=O)N3CCOc4ccc(-c5ccc6nc(C)[nH]c6c5)cc4C3)CC2)cc1` [compound 169, 1-[4-(4-{[7-(2-methyl-1H-benzimidazol-6-yl)-2,3-dihydro-1,4-benzoxazepin-4(5H)-yl]carbonyl}piperazin-1-yl)phenyl]ethanone] the value was “not active”.
For `Cc1nc2ccc(-c3ccc4c(c3)CN(C(=O)N3CCCCC3c3ccc(F)cc3C)CCO4)cc2[nH]1` (stereo not drawn) [compound 117, 4-{[2-(4-fluoro-2-methylphenyl)piperidin-1-yl]carbonyl}-7-(2-methyl-1H-benzimidazol-6-yl)-2,3,4,5-tetrahydro-1,4-benzoxazepine], the “IC50 (PI3Kα biochemical assay)” value against PI3Kα is on record as “not active”.
`Cc1nc2ccc(-c3ccc4c(c3)CN(C(=O)N3CCN(C)CC3c3ccccc3)CCO4)cc2[nH]1` (stereo not drawn) [compound 144, 7-(2-methyl-1H-benzimidazol-6-yl)-4-[(4-methyl-2-phenylpiperazin-1-yl)carbonyl]-2,3,4,5-tetrahydro-1,4-benzoxazephin]: at mTOR/GbL/Raptor (mTORC1), the “IC50 (mTORC1 ELISA)” value is on record as “not active”.
Take `Cc1nc2cc(-c3ccc4c(c3)CN(C(=O)N3CC[C@@](C)(O)C[C@@H]3c3ccccc3)CCO4)ccc2[nH]1` (racemic) [compound 133, (±)-(2R,4R)-4-methyl-1-{[7-(2-methyl-1H-benzimidazol-5-yl)-2,3-dihydro-1,4-benzoxazepin-4(5H)-yl]carbonyl}-2-phenylpiperidin-4-ol]: on PI3Kα, the “IC50 (PI3Kα biochemical assay)” value is recorded as “not active”.
Turning to `Cc1nc2ccc(-c3ccc4c(c3)CN(C(=O)N3CCCC3)CCO4)cc2[nH]1` [compound 87, 7-(2-methyl-1H-benzimidazol-6-yl)-4-(pyrrolidin-1-ylcarbonyl)-2,3,4,5-tetrahydro-1,4-benzoxazepine], on mTOR/GbL/Raptor (mTORC1), the “IC50 (mTORC1 ELISA)” value is listed as “not active”.
For `Cc1nc2ccc(-c3ccc4c(c3)CN(C(=O)N3CCN(c5ccc([N+](=O)[O-])cc5)CC3)CCO4)cc2[nH]1` [compound 168, 7-(2-methyl-1H-benzimidazol-6-yl)-4-{[4-(4-nitrophenyl)piperazin-1-yl]carbonyl}-2,3,4,5-tetrahydro-1,4-benzoxazepine], the “IC50 (mTORC1 ELISA)” value against mTOR/GbL/Raptor (mTORC1) is recorded as “not active”.
Take `Cc1nc2ccc(-c3ccc4c(c3)CN(C(=O)N3CCCCC3c3ccccc3C)CCO4)cc2[nH]1` (stereo not drawn) [compound 126, 7-(2-methyl-1H-benzimidazol-6-yl)-4-{[2-(2-methylphenyl)piperidin-1-yl]carbonyl}-2,3,4,5-tetrahydro-1,4-benzoxazepine]: on PI3Kα, the “IC50 (PI3Kα biochemical assay)” value is “not active”.
Still for that read-out and setting: for `CC1CCN(C(=O)N2CCOc3ccc(-c4cc(N)[nH]n4)cc3C2)CC1` [compound 10, 3-{4-[(4-methylpiperidin-1-yl)carbonyl]-2,3,4,5-tetrahydro-1,4-benzoxazepin-7-yl}-1H-pyrazol-5-amine] the value was “not active”.
On the same count and under the same terms, for `Cc1nc2ccc(-c3ccc4c(c3)CN(C(=O)N3[C@@H]5CC[C@H]3C[C@@H](N)C5)CCO4)cc2[nH]1` [compound 77, 8-{[7-(2-methyl-1H-benzimidazol-6-yl)-2,3-dihydro-1,4-benzoxazepin-4(5H)-yl]carbonyl}-8-azabicyclo[3.2.1]octan-3-(endo)-amine] the value was “not active”; for `Cc1nc2ccc(-c3ccc4c(c3)CN(C(=O)N3CCN(C)C(=O)C3)CCO4)cc2[nH]1` [compound 146, 1-methyl-4-{[7-(2-methyl-1H-benzimidazol-6-yl)-2,3-dihydro-1,4-benzoxazepin-4(5H)-yl]carbonyl}piperazin-2-one], “not active”; for `Cc1nc2ccc(-c3ccc4c(c3)CN(C(=O)N3CCCC[C@H]3c3ccccc3)CCO4)cc2[nH]1` [compound 65, 7-(2-methyl-1H-benzimidazol-6-yl)-4-{[(2S)-2-phenylpiperidin-1-yl]carbonyl}-2,3,4,5-tetrahydro-1,4-benzoxazepine], “not active”.
The same measure, in the same setting: for `CC1CCN(C(=O)N2CCOc3ccc(-c4cnc(N)cn4)cc3C2)CC1` [compound 4, 5-{4-[(4-methylpiperidin-1-yl)carbonyl]-2,3,4,5-tetrahydro-1,4-benzoxazepin-7-yl}pyrazin-2-amine] the value was “not active”.
Turning to `Cc1nc2ccc(-c3ccc4c(c3)CN(C(=O)NC3[C@H]5C[C@@H]6C[C@@H](C[C@H]3C6)C5)CCO4)cc2[nH]1` (stereo partly drawn) [compound 149, 7-(2-methyl-1H-benzimidazol-6-yl)-N-[(1r,3r,5R,7R)-tricyclo[3.3.1.1~3,7~]dec-2-yl]-2,3-dihydro-1,4-benzoxazepine-4(5H)-carboxamide], the “IC50 (PI3Kα biochemical assay)” value against PI3Kα is given as “not active”.
For `Cc1nc2ccc(-c3ccc4c(c3)CN(C(=O)N3CCN(c5ccccc5F)CC3)CCO4)cc2[nH]1` [compound 165, 4-{[4-(2-fluorophenyl)piperazin-1-yl]carbonyl}-7-(2-methyl-1H-benzimidazol-6-yl)-2,3,4,5-tetrahydro-1,4-benzoxazepine], the “IC50 (PI3Kα biochemical assay)” value against PI3Kα was “not active”.
Consider `Nc1cnc(-c2ccc3c(c2)CN(C(=O)N2CCC(C(F)(F)F)CC2)CCO3)cn1` [compound 6, 5-(4-{[4-(trifluoromethyl)piperidin-1-yl]carbonyl}-2,3,4,5-tetrahydro-1,4-benzoxazepin-7-yl)pyrazin-2-amine], for which the “IC50 (PI3Kα biochemical assay)” value at PI3Kα is “not active”.
The same measure, in the same setting: for `CCCCN(Cc1ccccc1)C(=O)N1CCOc2ccc(-c3ccc4nc(C)[nH]c4c3)cc2C1` [compound 173, N-butyl-7-(2-methyl-1H-benzimidazol-6-yl)-N-(phenylmethyl)-2,3-dihydro-1,4-benzoxazepine-4(5H)-carboxamide] the value was “not active”.
